# Measured values as given in article PMC7180767, “Influence of Selected Antidepressants on the Ciliated Protozoan Spirostomum ambiguum: Toxicity, Bioaccumulation, and Biotransformation Products” (Molecules, 2020).
# Read-outs that look alike come from different tables or passages of the source.
# Key:
# M. galloprovincialis = settings: fluoxetine 75 ng/L nominal, cited from earlier work
# Gammarus pulex = settings: cited from earlier work
# Thamnocephalus platyurus = settings: cited from earlier work
# Notonecta glauca = settings: cited from earlier work
# [1] = ref www.drugbank.ca, cited from earlier work; for Log P: octanol-water partition coefficient
# Daphnia magna = settings: endpoint not stated; cited from earlier work
# Planorbid sp. = settings: in vivo; cited from earlier work
# Ceriodaphnia dubia = settings: cited from earlier work; for toxicity: endpoint not stated
# Spirostomum ambiguum [2] = tested on: Spirostomum ambiguum
# Spirostomum ambiguum [3] = tested on: Spirostomum ambiguum; remark: listed apart in the source
# Spirostomum ambiguum [4] = test: microbe, parasite or virus in culture
# in vitro = settings: for LC50 at 1 d / LC50 at 2 d / LC50 at 7 d: Spirostomum ambiguum
# Spirostomum ambiguum [5] = tested on: Spirostomum ambiguum; remark: listed apart in the source
# [6] = tested on: Hydropsyche sp. and Erpobdella octoculata; settings: effluent reach stream; cited from earlier work
# Oncorhynchus mykiss = settings: cited from earlier work
# Leishmania donovani = settings: cited from earlier work
# [7] = Spirostomum ambiguum, 7 d, 10 µg/L, pH 7.4
# [8] = Spirostomum ambiguum, 7 d, 25 µg/L, pH 7.4
# [9] = Spirostomum ambiguum, 8 d, 10 µg/L, pH 7.4
# [10] = Spirostomum ambiguum, 8 d, 25 µg/L, pH 7.4
# [11] = Spirostomum ambiguum, 12 d, 10 µg/L, pH 7.4
# [12] = Spirostomum ambiguum, 12 d, 25 µg/L, pH 7.4
smiles,measurement,setting,value
NCCC(Oc1ccc(C(F)(F)F)cc1)c1ccccc1 (stereo not shown) [norfluoxetine],concentration in mussel,M. galloprovincialis; after 3 days,3.06 ng/g dry weight
same,concentration in mussel,M. galloprovincialis; after 15 days,11.65 ng/g
"CNCCC(Oc1ccc(C(F)(F)F)cc1)c1ccccc1 (stereo not shown) [Fluoxetine, fluoxetine]",concentration in mussel,M. galloprovincialis; after 3 days,2.53 ng/g dry weight
same,concentration in mussel,M. galloprovincialis; after 15 days,9.31 ng/g
same,BCF,Gammarus pulex,"185,900 L/kg"
same,toxicity,Thamnocephalus platyurus; endpoint not stated,0.85 mg/L
same,BCF,Notonecta glauca,1387 L/kg
same,Log P,[1],4.09
same,toxicity,Daphnia magna,0.82 mg/L
same,BCF,Planorbid sp.,3000 L/kg
same,toxicity,Ceriodaphnia dubia,0.23 mg/L
same,EC20,"Spirostomum ambiguum [2]; 1 d, pH = 6.0",2.03 ± 0.82 µg/mL
same,EC20,"Spirostomum ambiguum [2]; 1 d, pH = 6.5",1.16 ± 0.14 µg/mL
same,EC20,"Spirostomum ambiguum [2]; 1 d, pH = 7.4",1.21 ± 0.04 µg/mL
same,EC20,"Spirostomum ambiguum [2]; 2 d, pH = 6.0",1.72 ± 0.51 µg/mL
same,EC20,"Spirostomum ambiguum [2]; 2 d, pH = 6.5",0.98 ± 0.16 µg/mL
same,EC20,"Spirostomum ambiguum [2]; 2 d, pH = 7.4",1.06 ± 0.11 µg/mL
same,EC20,"Spirostomum ambiguum [2]; 7 d, pH = 6.0",0.86 ± 0.15 µg/mL
same,EC20,"Spirostomum ambiguum [2]; 7 d, pH = 6.5",0.58 ± 0.07 µg/mL
same,EC20,"Spirostomum ambiguum [2]; 7 d, pH = 7.4",0.70 ± 0.13 µg/mL
same,BCF values reached during the uptake phase,"Spirostomum ambiguum [3]; S. ambiguum, uptake phase",≤ 1000 L/kg
"Fc1ccc([C@@H]2CCNC[C@H]2COc2ccc3c(c2)OCO3)cc1 [Paroxetine, paroxetine]",EC50,"Spirostomum ambiguum [4]; 24 h, 1 d, pH = 6.0",3.15 ± 1.68 µg/mL
same,EC50,"Spirostomum ambiguum [4]; 24 h, 1 d, pH = 6.5",1.37 ± 0.03 µg/mL
same,EC50,"Spirostomum ambiguum [4]; 24 h, 1 d, pH = 7.4",1.15 ± 0.29 µg/mL
same,EC50,"Spirostomum ambiguum [4]; 48 h, 2 d, pH = 6.0",2.07 ± 0.73 µg/mL
same,EC50,"Spirostomum ambiguum [4]; 48 h, 2 d, pH = 6.5",1.24 ± 0.17 µg/mL
same,EC50,"Spirostomum ambiguum [4]; 48 h, 2 d, pH = 7.4",1.1 ± 0.29 µg/mL
same,EC50,"Spirostomum ambiguum [4]; […], 7 d, pH = 6.0",1.32 ± 0.13 µg/mL
same,EC50,"Spirostomum ambiguum [4]; […], 7 d, pH = 6.5",0.76 ± 0.26 µg/mL
same,EC50,"Spirostomum ambiguum [4]; […], 7 d, pH = 7.4",0.74 ± 0.06 µg/mL
same,toxicity,Daphnia magna,6.3 mg/L
same,toxicity,Ceriodaphnia dubia,0.58 mg/L
same,Bioconcentration factor in S. ambiguum,Spirostomum ambiguum [3]; [7],905 L/kg
same,Concentration in S. ambiguum,Spirostomum ambiguum [3]; [7],0.45 µg/g
same,Bioconcentration factor in S. ambiguum,Spirostomum ambiguum [3]; [8],794 L/kg
same,Concentration in S. ambiguum,Spirostomum ambiguum [3]; [8],1.19 µg/g
same,Bioconcentration factor in S. ambiguum,Spirostomum ambiguum [3]; [9],806 L/kg
same,Concentration in S. ambiguum,Spirostomum ambiguum [3]; [9],0.40 µg/g
same,Bioconcentration factor in S. ambiguum,Spirostomum ambiguum [3]; [10],934 L/kg
same,Concentration in S. ambiguum,Spirostomum ambiguum [3]; [10],1.40 µg/g
same,Bioconcentration factor in S. ambiguum,Spirostomum ambiguum [3]; [11],3649 L/kg
same,Concentration in S. ambiguum,Spirostomum ambiguum [3]; [11],1.82 µg/g
same,Bioconcentration factor in S. ambiguum,Spirostomum ambiguum [3]; [12],1234 L/kg
same,Concentration in S. ambiguum,Spirostomum ambiguum [3]; [12],1.85 µg/g
same,BCF values reached during the uptake phase,"Spirostomum ambiguum [3]; Spirostomum ambiguum, pH 7.4",≤ 1000 L/kg
same,LC50 at 1 d,in vitro; pH 6,4.53 ± 0.55 µg/mL
same,LC50 at 2 d,in vitro; pH 6,2.55 ± 0.75 µg/mL
same,LC50 at 7 d,in vitro; pH 6,1.44 ± 0.21 µg/mL
same,LC50 at 1 d,in vitro; pH 6.5,1.4 ± 0.06 µg/mL
same,LC50 at 7 d,in vitro; pH 6.5,0.81 ± 0.31 µg/mL
same,LC50 at 1 d,in vitro; pH 7.4,1.17 ± 0.29 µg/mL
same,LC50 at 2 d,in vitro; pH 7.4,1.15 ± 0.3 µg/mL
same,LC50 at 7 d,in vitro; pH 7.4,0.77 ± 0.1 µg/mL
same,LC50,in vitro; pH 6.5,1.27 ± 0.16 µg/mL
"CN1CCN2c3ccccc3Cc3ccccc3C2C1 (stereo not shown) [Mianserin, mianserin]",number of transformation products observed,Spirostomum ambiguum [5],Five
same,pKa,[1]; acid dissociation constant,6.92
same,Log P,[1],3.83
same,time of highest concentration in S. ambiguum cells,Spirostomum ambiguum [3],two days
same,Concentration in S. ambiguum,"Spirostomum ambiguum [3]; Spirostomum ambiguum, 1 d, 100 µg/L, pH 7.4",229.05 µg/g
same,BCF values reached during the uptake phase,"Spirostomum ambiguum [3]; Spirostomum ambiguum, pH 7.4",4939 L/kg
"CN[C@H]1CC[C@@H](c2ccc(Cl)c(Cl)c2)c2ccccc21 [Sertraline, sertraline]",24-h LC50,Thamnocephalus platyurus,0.6 µg/mL
same,bioaccumulation factor (BCF),[6],higher than 2000 L/kg
same,Log P,[1],5.06
same,BCF,Planorbid sp.,990 L/kg
same,48-h LC50,Ceriodaphnia dubia,0.12 µg/mL
same,EC20,"Spirostomum ambiguum [2]; Spirostomum ambiguum, 1 d, pH 6",0.46 ± 0.18 µg/mL
same,EC20,"Spirostomum ambiguum [2]; Spirostomum ambiguum, 1 d, pH 6.5",0.28 ± 0.04 µg/mL
same,EC20,"Spirostomum ambiguum [2]; Spirostomum ambiguum, 1 d, pH 7.4",0.29 ± 0.01 µg/mL
same,EC20,"Spirostomum ambiguum [2]; Spirostomum ambiguum, 2 d, pH 6",0.19 ± 0.03 µg/mL
same,EC20,"Spirostomum ambiguum [2]; Spirostomum ambiguum, 2 d, pH 6.5",0.22 ± 0.08 µg/mL
same,EC20,"Spirostomum ambiguum [2]; Spirostomum ambiguum, 2 d, pH 7.4",0.29 ± 0.01 µg/mL
same,EC20,"Spirostomum ambiguum [2]; Spirostomum ambiguum, 7 d, pH 6",0.20 ± 0.05 µg/mL
same,EC20,"Spirostomum ambiguum [2]; Spirostomum ambiguum, 7 d, pH 6.5",0.13 ± 0.03 µg/mL
same,EC20,"Spirostomum ambiguum [2]; Spirostomum ambiguum, 7 d, pH 7.4",0.15 ± 0.01 µg/mL
same,96-h LC50,Oncorhynchus mykiss,0.38 µg/mL
same,activity against Leishmania donovani,Leishmania donovani,high activity
same,time of highest concentration in cells,"Spirostomum ambiguum [3]; Spirostomum ambiguum, 100 µg/L, pH 7.4",24 h
same,BCF values reached during the uptake phase,"Spirostomum ambiguum [3]; Spirostomum ambiguum, pH 7.4","34,092 L/kg"
same,"fall of intracellular concentration in the depuration phase, of the highest concentration","Spirostomum ambiguum [3]; Spirostomum ambiguum, pH 7.4",40%
same,LC50 at 1 d,in vitro; pH 6,0.85 ± 0.09 µg/mL
same,LC50 at 2 d,in vitro; pH 6,0.49 ± 0.1 µg/mL
same,LC50 at 7 d,in vitro; pH 6,0.33 ± 0.08 µg/mL
same,LC50 at 1 d,in vitro; pH 6.5,0.47 ± 0.11 µg/mL
same,LC50 at 2 d,in vitro; pH 6.5,0.33 ± 0.06 µg/mL
same,LC50 at 7 d,in vitro; pH 6.5,0.18 ± 0.04 µg/mL
same,LC50 at 1 d,in vitro; pH 7.4,0.41 ± 0.05 µg/mL
same,LC50 at 2 d,in vitro; pH 7.4,0.35 ± 0.01 µg/mL
same,LC50 at 7 d,in vitro; pH 7.4,0.27 ± 0.03 µg/mL
